# What was measured:
# TYRO3 = molecular target: T1, TYRO3 (Homo sapiens, UniProt Q06418); experiment: TR-FRET kinase activity assay, TYRO3; type: biochemical; settings: ATP at Km, 60 minutes
# T1 sequence (Q06418 41-890): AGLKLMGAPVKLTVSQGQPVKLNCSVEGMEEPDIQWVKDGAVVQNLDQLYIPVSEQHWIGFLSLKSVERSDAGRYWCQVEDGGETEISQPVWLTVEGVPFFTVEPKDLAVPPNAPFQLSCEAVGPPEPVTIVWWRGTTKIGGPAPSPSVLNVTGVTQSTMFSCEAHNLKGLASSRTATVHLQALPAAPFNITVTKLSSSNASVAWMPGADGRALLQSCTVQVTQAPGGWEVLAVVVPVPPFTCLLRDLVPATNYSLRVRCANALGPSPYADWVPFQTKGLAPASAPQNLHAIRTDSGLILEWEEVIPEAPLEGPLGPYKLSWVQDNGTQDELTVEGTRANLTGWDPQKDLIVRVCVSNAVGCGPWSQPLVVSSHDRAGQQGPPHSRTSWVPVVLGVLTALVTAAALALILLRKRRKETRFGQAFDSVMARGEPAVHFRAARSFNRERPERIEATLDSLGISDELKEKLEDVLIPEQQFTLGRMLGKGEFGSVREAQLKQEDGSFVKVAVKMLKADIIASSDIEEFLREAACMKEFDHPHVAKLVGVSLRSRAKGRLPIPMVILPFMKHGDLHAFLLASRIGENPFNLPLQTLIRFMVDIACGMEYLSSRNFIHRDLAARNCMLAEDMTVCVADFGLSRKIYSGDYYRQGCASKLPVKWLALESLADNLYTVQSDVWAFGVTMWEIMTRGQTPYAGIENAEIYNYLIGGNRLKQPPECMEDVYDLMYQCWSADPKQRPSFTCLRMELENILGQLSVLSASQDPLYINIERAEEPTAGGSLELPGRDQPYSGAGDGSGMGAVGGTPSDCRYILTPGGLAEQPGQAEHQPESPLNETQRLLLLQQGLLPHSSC
# Outline: (§1)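 Recombinant human kinases, fluorescent peptide substrate, ATP at Km; 1 h RT, pH 7.5. EDTA-quenched, Eu antibody added, TR-FRET read; IC50 determined.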
# MERTK = molecular target: T2, MERTK (Homo sapiens, UniProt Q12866); experiment: TR-FRET kinase activity assay, MERTK; type: biochemical; settings: for IC50: TR-FRET activity assay, ATP at Km, 60 minutes, read-out: Mer IC50; for FLT3/Mer ratio (FLT3 IC50/Mer IC50): ratio of Mer to FLT3: FLT3 IC50/Mer IC50
# T2 sequence (Q12866 21-999): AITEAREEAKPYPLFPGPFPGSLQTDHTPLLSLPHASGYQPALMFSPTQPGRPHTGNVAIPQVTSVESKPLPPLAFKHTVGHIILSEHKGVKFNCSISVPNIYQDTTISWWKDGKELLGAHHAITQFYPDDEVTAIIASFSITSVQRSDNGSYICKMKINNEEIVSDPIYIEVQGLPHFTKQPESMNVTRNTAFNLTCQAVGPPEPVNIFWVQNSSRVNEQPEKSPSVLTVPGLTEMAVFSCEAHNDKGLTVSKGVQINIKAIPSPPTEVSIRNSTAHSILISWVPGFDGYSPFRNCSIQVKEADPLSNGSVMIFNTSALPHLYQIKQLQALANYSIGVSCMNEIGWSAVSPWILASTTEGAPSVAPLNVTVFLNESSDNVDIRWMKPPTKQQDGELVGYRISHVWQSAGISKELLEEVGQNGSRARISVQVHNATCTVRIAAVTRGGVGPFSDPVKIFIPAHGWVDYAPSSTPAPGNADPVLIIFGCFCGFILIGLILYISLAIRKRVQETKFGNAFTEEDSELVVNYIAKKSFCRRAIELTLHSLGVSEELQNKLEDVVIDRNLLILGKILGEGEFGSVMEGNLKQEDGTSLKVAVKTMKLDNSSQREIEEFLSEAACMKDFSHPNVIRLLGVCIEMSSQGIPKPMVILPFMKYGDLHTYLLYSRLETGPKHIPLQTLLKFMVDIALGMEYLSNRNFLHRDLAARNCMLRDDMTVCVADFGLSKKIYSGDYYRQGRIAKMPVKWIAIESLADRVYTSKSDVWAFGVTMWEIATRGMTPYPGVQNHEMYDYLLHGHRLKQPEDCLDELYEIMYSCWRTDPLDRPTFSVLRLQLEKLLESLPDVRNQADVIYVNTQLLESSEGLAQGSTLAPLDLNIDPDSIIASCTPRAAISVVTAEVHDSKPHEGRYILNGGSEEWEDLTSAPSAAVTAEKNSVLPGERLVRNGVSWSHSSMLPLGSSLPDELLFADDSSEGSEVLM
# Outline: as §1
Compound,IC50 (TYRO3) [nM],IC50 (MERTK) [nM],FLT3/Mer ratio (FLT3 IC50/Mer IC50) (MERTK)
"CCCCC[C@H](C)Nc1ncc2c(-c3ccc(S(=O)(=O)N4CCOCC4)cc3)cc([C@H]3CC[C@@H](O)CC3)n2n1 [Compound 103, (1R,4s)-4-(2-((S)-heptan-2-ylamino)-5-(4-(morpholinosulfonyl)phenyl)pyrrolo[2,1-f][1,2,4]triazin-7-yl)cyclohexanol]",100 to 1000,≤ 100,++ (“++” represents a ratio of between 10 and 100)
COCC(C)Nc1ncc2c(-c3ccc(C4(N5CCN(C)CC5)CC4)cc3)cc(C3CCC(O)CC3)n2n1 (stereo not drawn) [Compound 185],≤ 100,≤ 100,++ (“++” represents a ratio of between 10 and 100)
COC[C@H](C)Nc1ncc2c(-c3cn(C)cn3)cc([C@H]3CC[C@H](O)CC3)n2n1 [Compound 186],≤ 100,≤ 100,++ (“++” represents a ratio of between 10 and 100)
"COC[C@H](C)Nc1ncc2c(-c3ccc(C(=O)N4CCOCC4)cc3)cc([C@H]3CC[C@H](O)CC3)n2n1 [Compound 187, (4-(7-((trans)-4-hydroxycyclohexyl)-2-(((S)-1-methoxypropan-2-yl)amino)pyrrolo[2,1-f][1,2,4]triazin-5-yl)phenyl)(morpholino)methanone]",≤ 100,≤ 100,+++ (“+++” represents a ratio of >100)
C[C@@H](COC(F)F)Nc1ncc2c(-c3ccc(CN4CCOCC4)cc3)cc([C@H]3CC[C@H](O)CC3)n2n1 [Compound 188],≤ 100,≤ 100,+++ (“+++” represents a ratio of >100)
CC(CC1CC1)Nc1ncc2c(-c3ccc(CN4CCOCC4)cc3)cc(C3CCC(O)CC3)n2n1 (stereo not drawn) [Compound 189],≤ 100,≤ 100,++ (“++” represents a ratio of between 10 and 100)
Cc1cc(-c2cc(C3CCC(O)CC3)n3nc(NC(C)CC4CC4)ncc23)ccn1 (stereo not drawn) [Compound 190],≤ 100,≤ 100,+++ (“+++” represents a ratio of >100)
COCC(C)Nc1ncc2c(C3CC4CCC(C3)N4C)cc(C3CCC(O)CC3)n2n1 (stereo not drawn) [Compound 191],≤ 100,≤ 100,+++ (“+++” represents a ratio of >100)
COCC(C)Nc1ncc2c(N3CCOCC3=O)cc(C3CCC(O)CC3)n2n1 (stereo not drawn) [Compound 192],1000 to 10000,100 to 1000,++ (“++” represents a ratio of between 10 and 100)

# Source: patent publication US11040981B2, “Pyrrolotriazine compounds and methods of inhibiting TAM kinases” (Syros Pharmaceuticals, Inc., priority 2017, dated 2021)
